# Data as given in a melting point compilation (Tetko et al.; mined from patent text by program, amines drawn as free bases though some values may be those of a salt).
row,melting point,SMILES
1,179 to 181 °C,CNS(=O)(=O)c1ccc(-c2ccc3oc(C4CCN(C(=O)OC(C)C)CC4)nc3c2)cc1
2,126 to 127 °C,COc1cc(C=CC(=O)c2cccc(O)c2)cc(OC)c1
3,68 to 69 °C,Cc1ccc(S(=O)(=O)OC[C@@H](O)CCc2ccccc2)cc1
4,177 °C,O=C(Nc1ccc2cc(CN3CCCC3)cnc2c1)c1ccc(-c2ccc(Cl)cc2)cc1F
5,182 to 183 °C,Oc1ccc(N=Cc2ccccc2)cc1
6,113 °C,O=C(O)CCCCc1cc2nc(Cl)ccc2n1S(=O)(=O)c1ccccc1
7,116 to 117 °C,COc1ccc(-c2cccc3c2OC(COS(=O)(=O)c2ccc(C)cc2)C3)cc1 (stereo not drawn)
8,175 °C,CC(C)C1C(=O)Nc2ccc(O)cc21 (stereo not drawn)
9,208 °C,CC(=O)C(c1ccc(Cl)cc1)c1c(Cl)cc(-n2ncc(=O)[nH]c2=O)cc1Cl (stereo not drawn)
10,61 to 62 °C,O=C1Cc2ccc(Cl)cc2C(c2ccccc2)C1 (stereo not drawn)
11,97 to 99 °C,CCOC(=O)c1c(-c2ccc(F)cc2)nc(-c2ccccc2)nc1C(C)C
12,174 to 180 °C,CC(C)c1ccc(-n2c(CC(=O)O)c(C(=O)O)c3cc(Oc4ccc(Cl)cc4)ccc32)cc1
13,141 to 142 °C,COc1ccc(S(=O)(=O)Nc2ccccc2N)cc1
14,195 to 197 °C,CC(C(=O)O)c1ccc(-c2ccc(O)cc2)c(F)c1 (stereo not drawn)
15,209 °C,CC(C)(OCc1cc2nc(Cl)ccc2n1S(=O)(=O)c1cccc2ccccc12)C(=O)O
16,105 to 107 °C,N#Cc1cc(Cc2ccc(F)cc2)ccc1N
17,191 to 192 °C,CC(=O)C1=C(O)c2ccc3ccccc3c2S(=O)(=O)N1
18,155 to 156 °C,Cc1ccc(-c2cc3onc(-c4ccccc4)c3c(=O)n2C)cc1
19,156 to 158 °C,COC(=O)c1ccc(CC(=O)Nc2cc(Cl)ccc2N2CCCCC2)cc1
20,188 to 191 °C,O=C(NO)c1cc(Oc2ccc(C(F)(F)F)cc2Cl)ccc1O
21,158 to 161 °C,CS(=O)(=O)c1ccc(-c2[nH]c(S)nc2-c2ccc(F)cc2)cc1
22,85 to 86 °C,CC(N)C(=O)Nc1cc(OCC(F)(F)F)ccc1-c1ccccn1 (stereo not drawn)
23,108 to 111 °C,CC(C(=O)N(C)C)n1cc(I)c(-c2ccccc2)n1 (stereo not drawn)

# Second part, the compound before the results:
row,SMILES,melting point
1,Cn1c(CNC2CCS(=O)(=O)CC2)cc2cc(NC(=O)c3ccc(OCC4CC4)cc3)ccc21,200 to 201 °C
2,O=C(O)c1ccc(CCOCCCCCCBr)cc1,85 to 87.5 °C
3,CCCCCCCN(Cc1ccc(CCC(C)C)cc1)C(=O)NC1(OC)C=C(C)C=CN1 (stereo not drawn),90 to 91 °C
4,CN1C(=O)Cc2cc(Cl)ccc21,118 to 119 °C
5,CCOC(=O)C(=Cc1c(C)cc(C)cc1C)C(=O)CCl,85 °C
6,COC(=O)CCC/C=C(/c1ccc(OC)c(C(=O)OC)c1)c1cc(C)c2oc(=O)n(C)c2c1,134 to 135 °C
7,Cc1scc2c1N(C(=O)NCCN1CCC(CCCN(C)C)CC1)c1ccccc1NC2=O,> 300 °C
8,CC(C)Oc1nn(CCO)cc1C(=O)NCc1ccc(Cl)cc1Cl,122 to 123 °C
9,CCOC(=O)c1ccccc1NC(=O)NCC1(c2ccccc2)CCCCC1,99 to 101 °C
10,CCn1c(Oc2cccc(N)c2)nnc1[C@@H](C)NS(=O)(=O)c1ccc(Cl)c(Cl)c1,142 to 145 °C
11,O=C1c2cc(OCc3ccc4ccccc4n3)ccc2OCC1OCc1ccccc1 (stereo not drawn),113 to 115 °C
12,CCCc1c(C(C)C)nn2ccccc12,41 to 42 °C
13,Cc1ccc(S)c(C=O)c1,181 to 184 °C
14,Cc1cc(COc2ccc(S(=O)(=O)NC[C@@H](C(=O)NO)N3CCN(C(=O)OCc4ccccc4)CC3)cc2)c2ccccc2n1,162 °C
15,Fc1cc(Cl)cc(Cn2cccc2)c1,48 to 50 °C
16,COc1cc2c(cc1OC)C1(CCC(=O)NC1=O)CCC2=O (stereo not drawn),269 to 271 °C
17,CC(=O)SCC(Cc1ccccc1)C(=O)Nc1cccc(C(=O)N[C@@H](Cc2ccccc2)C(=O)OCc2ccccc2)c1 (stereo partly drawn),89 to 91 °C
18,CCCCCCC(=NO)C(=O)c1ccc(OC)c2ccccc12,92 to 93 °C
19,O=C(Nc1cccc(Cc2ccccc2)c1)c1ccn2c1CSC2c1cccnc1 (stereo not drawn),140 °C
20,Cc1cccc2c1n(CCS(C)(=O)=O)c(=O)n2C(=O)N[C@H](C(=O)N(C)C)C(C)(C)C,191 °C
21,Cc1c(NC(=O)N2CC[C@H](O[Si](C)(C)C(C)(C)C)[C@H]2CO)ccc(C#N)c1Cl,174 to 176 °C
22,CN1Cc2c(C(=O)OC3CCCCC3)ncn2-c2cccc(Cl)c2C1=O,208 to 209 °C
23,Cn1cc(C2CCC(=O)C2)c2cc(C#N)ccc21 (stereo not drawn),167 to 168 °C
24,CC(C)(C)CC(=O)N1CCC(c2ccc(COc3ccc(S(C)(=O)=O)cc3)nc2)CC1,140 to 142 °C
25,CCC1(CC)OC(=S)Nc2ccc(-c3cccc(Cl)c3)cc21,148 to 150 °C

row,SMILES,melting point
1,COC(=O)C1=C(C)Nc2nc(N3CCOCC3)nc(N3CCOCC3)c2C1c1cccc(Cl)c1Cl (stereo not drawn),188 °C
2,O=C(NC1CCCCC1)c1ccc(Cn2cnc3ccccc32)cc1,189 to 191 °C
3,COc1cc2c(cc1Br)-c1c(-c3cccs3)c3c(n1CC2)C(=O)N(C(C)C)CCNC3,201 to 203 °C
4,CCN1CCCOc2ccc(Nc3ncc(Cl)c(Nc4ccsc4C(=O)NC)n3)cc21,153 to 155 °C
5,Cn1c(=O)c2c(ncn2CCCCCCl)n(C)c1=O,78 to 80 °C
6,CC(Oc1ccccc1)C(=O)NCCO[N+](=O)[O-] (stereo not drawn),74 to 75 °C
7,CCOC(=O)C1=C(C)NC(CSc2ccccc2)=C(C(=O)OCC)C1c1cccc([N+](=O)[O-])c1 (stereo not drawn),92 to 94 °C
8,Cc1cc(OCCC[Si](C)(C)C)c(Cl)cc1N(C#N)C=N,143 to 144 °C
9,CCn1nc(C)c(N)c1C(N)=O,143 to 145 °C
10,COc1cc(OS(C)(=O)=O)ccc1C1=NC2=NCC(=O)NC2=N1,> 260 °C
11,CCOc1ccc(C2CCC3c4ccc(OCC)c(F)c4OC3C2)c(F)c1F (stereo not drawn),126 °C
12,O=C1c2ccccc2C=C(Cl)C(Cl)c2ccccc21 (stereo not drawn),123 to 125 °C
13,Cc1nc(N2CCOCC2)sc1-c1ccnc(Nc2ccc(N3CCOCC3)cc2)n1,229 to 231 °C
14,c1ccc(-c2ccn3nccc3n2)cc1,122 to 124 °C
15,Nc1ncc(Sc2ccc(C(F)(F)F)cn2)s1,135 to 138 °C
16,CN1CCN(c2ccc(/C=C/C(=O)O)cc2)CC1,223 to 226 °C
17,COC(=O)c1cc(O)cc(O)c1C,136 to 138 °C
18,Cc1c(C(=O)Nc2ccc(OC3CCN(Cc4ccccc4)CC3)c(C#N)c2)cnn1-c1ccc(Cl)cc1,194 °C
19,CC1(C)CCC(C)(C)c2cc(C3NC(=O)NC3=O)ccc21 (stereo not drawn),213 to 214 °C
20,C=CC[C@H](C(N)=O)[C@@H](CC(C)C)C(=O)NC1N=C(N2CCCCC2)c2ccccc2N(C)C1=O (stereo partly drawn),231 to 238 °C
21,CC(=O)/C(=N/O[C@H]1CC[C@H](C(=O)N(C)C)CC1)C(=O)OC(C)(C)C,109 to 110 °C
22,Clc1cccc(N2CCN(Cc3cn4cc(Cl)ccc4n3)CC2)c1,148 to 149 °C
23,CSc1cc(SC)c(SC)cc1SC,127 to 129 °C
24,COC(=O)c1ccc2c(c1)CCN2C(=O)OC(C)(C)C,107 to 108 °C
25,CCc1nn(CCCO)c(CC)c1Cc1cc(Cl)cc(Cl)c1,56 to 59 °C
